From patent US10808007B2, “Desacetoxytubulysin H and analogs thereof” (WILLIAM MARSH RICE UNIVERSITY, priority 2015, dated 2020) come the findings set out here.

What all share (assay type): cell-based
For experiment [1], the system named is HEK 293T (human embryonic kidney cells). Put plainly: Cytotoxic assay (CellTiter-Glo, 72 h), HEK 293T. The settings on record: Homo sapiens, HEK-293T, read-out: IC50 HEK 293T.
Experiment [2] relates to MES SA (uterine sarcoma cells). Put plainly: Cytotoxic assay (CellTiter-Glo, 72 h), MES SA. The settings on record: Homo sapiens, MES-SA, read-out: IC50 MES SA.
Experiment [3] concerns MES SA DX (multidrug resistant uterine sarcoma cells). Put plainly: Cytotoxic assay (CellTiter-Glo, 72 h), MES SA DX. The settings on record: Homo sapiens.

Where two headings read alike, the source gives them in different places.

In the case of `CC(=O)O[C@H](C[C@H](C(C)C)N(C)C(=O)[C@@H](NC(=O)[C@H]1CCCCN1C)C1CC1)c1nc(C(=O)N[C@@H](Cc2ccccc2)C[C@H](C)C(=O)O)cs1` [Tb30, (2S,4R)-4-(2-((1R,3R)-1-Acetoxy-3-((S)-2-cyclopropyl-N-methyl-2-((R)-1-methylpiperidine-2-carboxamido)acetamido)-4-methylpentyl)thiazole-4-carboxamido)-2-methyl-5-phenylpentanoic Acid], the IC50 in experiment [1] (72 h) is 0.35 nM; in experiment [2] (72 h), 4.09 nM; in experiment [3], over 100 nM.
Turning to `CC[C@H](C)[C@H](NC(=O)c1ncccn1)C(=O)N(C)[C@H](C[C@@H](OC(C)=O)c1nc(C(=O)N[C@@H](Cc2ccccc2)C[C@H](C)C(=O)OC)cs1)C(C)C` [Tb34, (2S,4R)-methyl 4-(2-((1R,3R)-1-acetoxy-3-((2S,3S)—N,3-dimethyl-2-(pyrimidine-2-carboxamido)pentanamido)-4-methylpentyl)thiazole-4-carboxamido)-2-methyl-5-phenylpentanoate], the figures for the IC50 in experiment [1] (72 h), in experiment [2] (72 h) and in experiment [3] were over 500 nM, over 1000 nM and over 1000 nM, respectively.
As to `COC(=O)[C@@H](C)C[C@H](Cc1ccccc1)NC(=O)c1csc([C@@H](C[C@H](C(C)C)N(C)C(=O)[C@@H](NC(=O)[C@H]2CCCCN2C)C2CCCCC2)OC(C)=O)n1` [Tb33, (2S,4R)-Methyl 4-(2-((1R,3R)-1-acetoxy-3-((S)-2-cyclohexyl-N-methyl-2-((R)-1-methylpiperidine-2-carboxamido)acetamido)-4-methylpentyl)thiazole-4-carboxamido)-2-methyl-5-phenylpentanoate], the IC50 in experiment [1] (72 h) turned out to be 0.048 nM; in experiment [1], 0.048 nM; in experiment [2] (72 h), 0.066 nM; in experiment [2], 0.066 nM; in experiment [3] it was 101 nM.
With `CC[C@H](C)[C@H](NC(=O)[C@H]1CCCCN1C)C(=O)N(C)[C@H](CCc1nc(C(=O)N[C@@H](Cc2ccccc2)C[C@H](C)C(=O)OC)cs1)C(C)C` [PTb-D42, Methyl(2S,4R)-4-(2-((R)-3-((2S,3S)—N,3-dimethyl-2-((R)-1-methylpiperidine-2-carboxamido)pentanamido)-4-methylpentyl)thiazole-4-carboxamido)-2-methyl-5-phenylpentanoate], the IC50 in experiment [1] (72 h), in experiment [2] (72 h) and in experiment [3] was over 1000 nM each time.
In the case of `COC(=O)[C@@H](C)C[C@H](Cc1ccccc1)NC(=O)c1csc([C@@H](C[C@H](C(C)C)N(C)C(=O)[C@@H](NC(=O)[C@H]2CCCCN2C)c2ccc(F)cc2)OC(C)=O)n1` [Tb29, (2S,4R)-Methyl 4-(2-((1R,3R)-1-acetoxy-3-((S)-2-(4-fluorophenyl)-N-methyl-2-((R)-1-methylpiperidine-2-carboxamido)acetamido)-4-methylpentyl)thiazole-4-carboxamido)-2-methyl-5-phenylpentan oate], the IC50 in experiment [1] (72 h) came out at 2.24 nM; in experiment [2] (72 h), 2.61 nM; in experiment [3], 500 nM.
As for `COC(=O)[C@@H](C)C[C@H](Cc1ccccc1)NC(=O)c1cccc([C@@H](C[C@H](C(C)C)N(C)C(=O)[C@@H](NC(=O)[C@H]2CCCCN2C)C2CC2)OC(C)=O)n1` [Tb36, Methyl (2S,4R)-4-(6-((1R,3R)-1-acetoxy-3-((S)-2-cyclopropyl-N-methyl-2-((R)-1-methylpiperidine-2-carboxamido)acetamido)-4-methylpentyl)picolinamido)-2-methyl-5-phenylpentanoate], the IC50 in experiment [1] (72 h) is 0.631 nM; in experiment [1], 0.631 nM; in experiment [2] (72 h), 0.308 nM; in experiment [2], 0.308 nM; in experiment [3] it was over 1000 nM.
Take `CC(=O)O[C@H](C[C@H](C(C)C)N(C)C(=O)[C@@H](NC(=O)[C@H]1CCCCN1C)C1CC1)c1cccc(C(=O)N[C@@H](Cc2ccccc2)C[C@H](C)C(=O)O)n1` [Tb37, (2S,4R)-4-(6-((1R,3R)-1-Acetoxy-3-((S)-2-cyclopropyl-N-methyl-2-((R)-1-methylpiperidine-2-carbox-amido)acetamido)-4-methylpentyl)picolinamido)-2-methyl-5-phenylpentanoic Acid]: the IC50 is 3.52 nM in experiment [1] (72 h), 14.4 nM in experiment [2] (72 h) and over 1000 nM in experiment [3].
On to `COC(=O)[C@@H](C)C[C@H](Cc1ccccc1)NC(=O)c1csc([C@@H](C[C@H](C(C)C)N(C)C(=O)[C@@H](NC(=O)[C@H]2CCCN2C)C2CC2)OC(C)=O)n1` [Tb26, (2S,4R)-Methyl 4-(2-((1R,3R)-1-acetoxy-3-((S)-2-cyclopropyl-N-methyl-2-((R)-1-methylpyrrolidine-2-carboxamido)acetamido)-4-methylpentyl)thiazole-4-carboxamido)-2methyl-5-phenylpentanoate], for which the IC50 is 0.12 nM in experiment [1] (72 h); 0.12 nM in experiment [1]; 0.2 nM in experiment [2] (72 h); 0.2 nM in experiment [2]; over 100 nM in experiment [3].
Regarding `CC[C@H](C)[C@H](NC(=O)[C@H]1CCCCN1C)C(=O)N(C)[C@H](CCc1nc(C(=O)N[C@@H](Cc2ccccc2)C[C@H](C)C(=O)O)cs1)C(C)C` [PTb-D43, pretubulysin D, reference compound], the IC50 was 109 nM in experiment [1] (72 h), 409 nM in experiment [2] (72 h) and over 1000 nM in experiment [3].
In the same order, the values of `COC(=O)[C@@H](C)C[C@H](Cc1ccc(F)cc1)NC(=O)c1csc([C@@H](C[C@H](C(C)C)N(C)C(=O)[C@@H](NC(=O)[C@H]2CCCCN2C)C(C)C)OC(C)=O)n1` [Tb40, Methyl(2S,4R)-4-(2-((1R,3R)-1-acetoxy-3-((S)—N,3-dimethyl-2-((R)-1-methylpiperidine-2-carboxamido)butanamido)-4-methylpentyl)thiazole-4-carboxamido)-5-(4-fluorophenyl)-2-methylpentanoate] are over 1000 nM, 15.6 nM and over 1000 nM.
For `COC(=O)[C@@H](C)C[C@H](Cc1cn(C)c2ccccc12)NC(=O)c1csc([C@@H](C[C@H](C(C)C)N(C)C(=O)[C@@H](NC(=O)[C@H]2CCCCN2C)C(C)C)OC(C)=O)n1` [Tb41, Methyl(2S,4R)-4-(2-((1R,3R)-1-acetoxy-3-((S)—N,3-dimethyl-2-((R)-1-methylpiperidine-2-carboxamido)butanamido)-4-methylpentyl)thiazole-4-carboxamido)-2-methyl-5-(1-methyl-1H-indol-3-yl)pen-tanoate], the figures for the IC50 in experiment [1] (72 h), in experiment [2] (72 h) and in experiment [3] were 21.1 nM, over 1000 nM and over 1000 nM, respectively.
For the compound `CC[C@H](C)[C@H](NC(=O)[C@H]1CCCCN1C)C(=O)N(C)[C@H](C[C@@H](OC(C)=O)c1cccc(C(=O)N[C@@H](Cc2ccccc2)C[C@H](C)C(=O)O)n1)C(C)C` [Tb39, (2S,4R)-4-(6-((1R,3R)-1-acetoxy-3-((2S,3S)—N,3-dimethyl-2-((R)-1-methylpiperidine-2 carboxamido)pentanamido)-4-methylpentyl)picolinamido)-2-methyl-5-phenylpentanoic Acid], the IC50 in experiment [1] (72 h) is 0.194 nM; in experiment [1], 0.194 nM; in experiment [2] (72 h) it was 0.891 nM; in experiment [2] it was 0.891 nM; in experiment [3] it was under 500 nM.
`COC(=O)[C@H](Cc1ccccc1)NC(=O)c1csc([C@@H](C[C@H](C(C)C)N(C)C(=O)[C@@H](NC(=O)[C@H]2CCCCN2C)C2CC2)OC(C)=O)n1` [Tb24, Methyl(2-((1R,3R)-1-acetoxy-3-((S)-2-cyclopropyl-N-methyl-2-((R)-1-methylpiperidine-2-carboxam-ido)acetamido)-4-methylpentyl)thiazole-4-carbonyl)-L-phenylalaninate]: the figures for the IC50 in experiment [1] (72 h), in experiment [2] (72 h) and in experiment [3] were 9.69 nM, 13.1 nM and over 100 nM, respectively.
Turning to `CC[C@H](C)[C@H](NC(=O)[C@H]1CCCCN1C)C(=O)N(C)[C@H](C[C@@H](OC(C)=O)c1cccc(C(=O)N[C@@H](Cc2ccccc2)C[C@H](C)C(=O)OC)n1)C(C)C` [Tb38, Methyl (2S,4R)-4-(6-((1R,3R)-1-acetoxy-3-((2S,3S)—N,3-dimethyl-2-((R)-1-methylpiperidine-2-carboxamido)pentanamido)-4-methylpentyl)picolinamido)-2-methyl-5-phenylpentanoate], the IC50 in experiment [1] (72 h) was 0.574 nM; in experiment [1] it was 0.574 nM; in experiment [2] (72 h), 0.357 nM; in experiment [2] it was 0.357 nM; in experiment [3], under 500 nM.
On to `COC(=O)[C@@H](C)C[C@H](Cc1ccccc1)NC(=O)c1csc([C@@H](C[C@H](C(C)C)N(C)C(=O)C2(NC(=O)[C@H]3CCCCN3C)CC2)OC(C)=O)n1` [Tb27, (2S,4R)-Methyl 4-(2-((1R,3R)-1-acetoxy-4-methyl-3-(N-methyl-1-((R)-1-methylpiperidine-2-carboxamido)cyclopropanecarboxamido)pentyl)thiazole-4-carboxamido)-2-methyl-5-phenylpentanoate], for which the IC50 in experiment [1] (72 h) was 1.96 nM; in experiment [2] (72 h) it was 2.46 nM; in experiment [3], over 100 nM.
For the compound `COC(=O)[C@@H](C)C[C@H](Cc1ccccc1)NC(=O)c1csc([C@@H](C[C@H](C(C)C)N(C)C(=O)[C@@H](NC(=O)[C@H]2CCCCN2C)C(C)C)OC(C)=O)n1` [Tb32, (2S,4R)-Methyl 4-(2-((1R,3R)-1-acetoxy-3-((S)—N,3-dimethyl-2-((R)-1-methylpiperidine-2-carboxamido)butanamido)-4-methylpentyl)thiazole-4-carboxamido)-2-methyl-5-phenylpentanoate], the IC50 in experiment [1] (72 h) came to 0.002 nM; in experiment [1], 0.002 nM; in experiment [2] (72 h), 0.012 nM; in experiment [2], 0.012 nM; in experiment [3] it was 1.29 nM.
In the case of `COC(=O)[C@@H](C)C[C@H](Cc1ccccc1)NC(=O)c1csc([C@@H](C[C@H](C(C)C)N(C)C(=O)C2(NC(=O)[C@H]3CCCCN3C)CCC2)OC(C)=O)n1` [Tb28, (2S,4R)-Methyl 4-(2-((1R,3R)-1-acetoxy-4-methyl-3-(N-methyl-1-((R)-1-methylpiperidine-2-carboxamido)cyclobutanecarboxamido)pentyl)thiazole-4-carboxamido)-2-methyl-5-phenylpentanoate], the values for the IC50 in experiment [1] (72 h), in experiment [2] (72 h) and in experiment [3] were 0.69 nM, 1.13 nM and 81.7 nM, respectively.
